According to patent US11246865B2 (priority 2017, dated 2022):

What was measured:
[1] = rat, in vivo
[2] = Study 1: tolerance and cross-tolerance, tail pinch test (MPE); type: in vivo, rat; details: for antinociceptive effect / tolerance in DPI-125 tolerant animals: tolerant to 1.0 mg/kg DPI-125 BID
[3] = Studies 2 and 3: antinociceptive ED50 in naive and tolerant animals, tail pinch test; type: in vivo, rat; details: for ED50: Rattus norvegicus, sc, 20 min
[4] = rat, in vivo; remark: listed apart in the source
[5] = in vivo; details: rat

For `CN1CC[C@]23c4c5ccc(O)c4O[C@H]2[C@@H](O)C=C[C@H]3[C@H]1C5` [Morphine, morphine, reference compound], the “Analgesic ED50 Tail Pinch” value [1] was 2.01 mg/kg, the “Mean MPE” value ([2]; DPI-125 tolerant animals, challenge dose 1 (day 7), 30 min) was 2.63% and the “Mean MPE” value ([2]; DPI-125 tolerant animals, challenge dose 1 (day 7), morphine 5.0 or DPI-125 1.0 mg/kg s.c., 20 min) was 1.76%. For the same compound, the “Mean MPE” value ([2]; DPI-125 tolerant animals, challenge dose 2 (day 7.25), 20 min) was 0.00%, the “Mean MPE” value ([2]; DPI-125 tolerant animals, challenge dose 2 (day 7.25), 30 min) was 1.75% and the “Mean MPE” value ([2]; DPI-125 tolerant animals, challenge dose 3 (day 8), 20 min) was 3.51%. For the same compound, the “Mean MPE” value ([2]; DPI-125 tolerant animals, challenge dose 3 (day 8), 30 min) was 0.00%, the “Mean MPE” value ([2]; DPI-125 tolerant animals, challenge dose 4 (day 8.25), 20 min) was 0.88% and the “Mean MPE” value ([2]; DPI-125 tolerant animals, challenge dose 4 (day 8.25), 30 min) was 0.00%. The “MPE on Day 1” value ([2]; all animals, both dose points and both time points (20 and 30 min)) was 100%, the “time to maximal/complete tolerance” value ([2]; b.i.d. s.c. dosing, morphine 5.0 mg/kg, DPI-125 1.0 mg/kg) was 5 days and the “Mean MPE” value ([2]; morphine tolerant animals, challenge dose 1 (day 6), 30 min) was 4.4%. For the same compound, the “Mean MPE” value ([2]; morphine tolerant animals, challenge dose 1 (day 6), morphine 5.0 or DPI-125 1.0 mg/kg s.c., 20 min) was 4.4%, the “Mean MPE” value ([2]; morphine tolerant animals, challenge dose 2 (day 6.25), 20 min) was 0.9% and the “Mean MPE” value ([2]; morphine tolerant animals, challenge dose 2 (day 6.25), 30 min) was 2.6%. For the same compound, the “Mean MPE” value ([2]; morphine tolerant animals, challenge dose 3 (day 7), 20 min) was 0.0%, the “Mean MPE” value ([2]; morphine tolerant animals, challenge dose 3 (day 7), 30 min) was 0.9% and the “Mean MPE” value ([2]; morphine tolerant animals, challenge dose 4 (day 7.25), 20 min) was 2.6%. For the same compound, the “Mean MPE” value ([2]; morphine tolerant animals, challenge dose 4 (day 7.25), 30 min) was 1.8%, the “Mean MPE” value ([2]; tolerance development, dose 1 (day 1), s.c. BID (morphine 5.0, DPI-125 1.0 mg/kg), 20 minutes post-drug) was 100.0% and the “Mean MPE” value ([2]; tolerance development, dose 1 (day 1), s.c. BID (morphine 5.0, DPI-125 1.0 mg/kg), 30 minutes post-drug) was 100.0%. The “Mean MPE” value ([2]; tolerance development, dose 2 (day 1.25), s.c. BID, 20 minutes post-drug) was 100.0%, the “Mean MPE” value ([2]; tolerance development, dose 2 (day 1.25), s.c. BID, 30 minutes post-drug) was 100.0% and the “Mean MPE” value ([2]; tolerance development, dose 3 (day 2), s.c. BID, 20 minutes post-drug) was 78.9%. The “Mean MPE” value ([2]; tolerance development, dose 3 (day 2), s.c. BID, 20 minutes post-drug, listed as morphine sulfate) was 78.9±7.9%, the “Mean MPE” value ([2]; tolerance development, dose 3 (day 2), s.c. BID, 30 minutes post-drug) was 75.9% and the “Mean MPE” value ([2]; tolerance development, dose 3 (day 2), s.c. BID, 30 minutes post-drug, listed as morphine sulfate) was 78.9±8.6%. For the same compound, the “Mean MPE” value ([2]; tolerance development, dose 4 (day 2.25), s.c. BID, 20 minutes post-drug) was 56.6%, the “Mean MPE” value ([2]; tolerance development, dose 4 (day 2.25), s.c. BID, 30 minutes post-drug) was 57.9% and the “Mean MPE” value ([2]; tolerance development, dose 5 (day 3), s.c. BID, 20 minutes post-drug) was 33.8%. For the same compound, the “Mean MPE” value ([2]; tolerance development, dose 5 (day 3), s.c. BID, 30 minutes post-drug) was 46.5%, the “Mean MPE” value ([2]; tolerance development, dose 6 (day 3.25), s.c. BID, 20 minutes post-drug) was 32.9% and the “Mean MPE” value ([2]; tolerance development, dose 6 (day 3.25), s.c. BID, 30 minutes post-drug) was 24.1%. The “Mean MPE” value ([2]; tolerance development, dose 7 (day 4), s.c. BID, 20 minutes post-drug) was 23.7%, the “Mean MPE” value ([2]; tolerance development, dose 7 (day 4), s.c. BID, 30 minutes post-drug) was 20.6% and the “Mean MPE” value ([2]; tolerance development, dose 8 (day 4.25), s.c. BID, 20 minutes post-drug) was 7.0%. The “Mean MPE” value ([2]; tolerance development, dose 8 (day 4.25), s.c. BID, 20 minutes post-drug, listed as morphine sulfate) was 7.0±2.8%, the “Mean MPE” value ([2]; tolerance development, dose 8 (day 4.25), s.c. BID, 30 minutes post-drug) was 5.7% and the “Mean MPE” value ([2]; tolerance development, dose 8 (day 4.25), s.c. BID, 30 minutes post-drug, listed as morphine sulfate) was 5.7±1.8%. For the same compound, the “Mean MPE” value ([2]; tolerance development, dose 9 (day 5), s.c. BID, 20 minutes post-drug) was 3.1%, the “Mean MPE” value ([2]; tolerance development, dose 9 (day 5), s.c. BID, 20 minutes post-drug, listed as morphine sulfate) was 3.1±1.2% and the “Mean MPE” value ([2]; tolerance development, dose 9 (day 5), s.c. BID, 30 minutes post-drug) was 2.2%. The “Mean MPE” value ([2]; tolerance development, dose 9 (day 5), s.c. BID, 30 minutes post-drug, listed as morphine sulfate) was 2.2±1.0%, the “Mean MPE” value ([2]; tolerance development, dose 10 (day 5.25), s.c. BID, 20 minutes post-drug) was 5.3% and the “Mean MPE” value ([2]; tolerance development, dose 10 (day 5.25), s.c. BID, 30 minutes post-drug) was 3.9%. The “antinociceptive effect / tolerance in DPI-125 tolerant animals” value ([2]; challenge morphine 5.0 or DPI-125 1.0 mg/kg) was “complete tolerance”, the “antinociceptive effect / tolerance in DPI-125 tolerant animals” value ([2]; challenge morphine 5.0 or DPI-125 1.0 mg/kg, listed as morphine sulfate) was “no antinociceptive effects” and the “antinociceptive effect / tolerance in morphine tolerant animals” value ([2]; tolerant to 5.0 mg/kg morphine BID, challenge morphine 5.0 or DPI-125 1.0 mg/kg) was “no antinociceptive effects”. The “Fold Change of ED50” value ([3]; DPI-125 tolerant versus naive animals) was 7.8 fold, the ED50 ([3]; DPI-125 tolerant animals, 20 min tail pinch) was 15.8 mg/kg and the ED50 ([3]; morphine tolerant animals, 20 min tail pinch) was 11.3 mg/kg. The ED50 ([3]; naive animals, 20 min tail pinch) was 2.04 mg/kg, the “Fold Change of ED50” value ([3]; morphine tolerant versus naive animals) was 5.5 fold and the “antinociceptive ED50” value ([3]; naive animals, s.c., 20 min tail pinch) was 2.037 mg/kg. The “Therapeutic Ratio” value [4] was 2.1 and the ED50 [5] was 4.23 mg/kg.
